Results reported in patent publication US9034882B2, “Inhibitors of human immunodeficiency virus replication” (priority 2012, dated 2015).
Where two headings read alike, the source gives them in different places.

System: recombinant NL-Rluc virus
Assay: Inhibition of HIV replication (NL-RLuc luciferase reporter virus in MT-2 cells)
Type: cell-based
[1] = Human immunodeficiency virus 1, MT2, 120 h, read-out: Activity
[2] = Human immunodeficiency virus 1, MT2, 120 h, read-out: EC50 μM

Cc1nc2cc(-c3ccccc3)nn2c(N2CCC(C)(C)CC2)c1C(OC(C)(C)C)C(=O)O (stereo not shown) [Example 1, 2-(tert-butoxy)-2-(7-(4,4-dimethylpiperidin-1-yl)-5-methyl-2-phenylpyrazolo[1,5a]pyrimidin-6-yl)acetic acid]
EC50 [1]: 0.1 to 1 µM | EC50 [2]: 0.55 µM

Cc1nc2cc(-c3ccccc3)nn2c(N2CCCCC2)c1C(OC(C)(C)C)C(=O)O (stereo not shown) [Example 2, 2-(tert-butoxy)-2-(7-(lpiperidin-1-yl)-5-methyl-2-phenylpyrazolo[1,5a]pyrimidin-6-yl)acetic acid]
EC50 [1]: > 1 µM | EC50 [2]: 5 µM

Cc1nc2cc(-c3ccccc3)nn2c(N2CCc3ccccc3C2)c1C(OC(C)(C)C)C(=O)O (stereo not shown) [Example 3, 2-(tert-butoxy)-2-(7-(3,4-dijydroisoquinolin-2(1H)-yl)-5-methyl-2-phenylpyrazolo[1,5a]pyrimidin-6-yl)acetic acid]
EC50 [1]: > 1 µM

Cc1nc2cc(-c3ccccc3)nn2c(N2CCCNCC2)c1C(OC(C)(C)C)C(=O)O (stereo not shown) [Example 4, 2(7-(1,4-diazepan-1-yl)-5-methyl-2-phenylpyrazolo[1,5a]pyrimidin-6-yl)-2-(tert-butoxy)-acetic acid]
EC50 [1]: > 1 µM

Cc1nc2cc(-c3ccccc3)nn2c(N2Cc3ccccc3C2)c1C(OC(C)(C)C)C(=O)O (stereo not shown) [Example 5, 2-(tert-butoxy)-2-(7-(isoindolin-2-yl)-5-methyl-2-phenylpyrazolo[1,5a]pyrimidin-6-yl)acetic acid]
EC50 [1]: > 1 µM

Cc1nc2cc(-c3ccccc3)nn2c(N2CCCCCC2)c1C(OC(C)(C)C)C(=O)O (stereo not shown) [Example 6, 2(7-(azepan-1-yl)-5-methyl-2-phenylpyrazolo[1,5a]pyrimidin-6-yl)-2-(tert-butoxy)-acetic acid]
EC50 [1]: > 1 µM

Cc1nc2cc(-c3ccccc3)nn2c(N2CCN(C)CC2)c1C(OC(C)(C)C)C(=O)O (stereo not shown) [Example 7, 2-(tert-butoxy)-2-(5-methyl-7(4-methylpiperazin-1-yl)-2-phenylpyrazolo[1,5a]pyrimidin-6-yl)acetic acid]
EC50 [1]: > 1 µM | EC50 [2]: 5.2 µM

Cc1nc2cc(-c3ccccc3)nn2c(N2CCC(C)CC2)c1C(OC(C)(C)C)C(=O)O (stereo not shown) [Example 8, 2-(tert-butoxy)-2-(5-methyl-7-(4-methylpiperidin-1-yl)-2-phenylpyrazolo[1,5a]pyrimidin-6-yl)acetic acid]
EC50 [1]: 0.1 to 1 µM | EC50 [2]: 0.72 µM

Cc1nc2cc(-c3ccccc3)nn2c(N2C(C)COCC2C)c1C(OC(C)(C)C)C(=O)O (stereo not shown) [Example 9]
EC50 [1]: > 1 µM

Cc1nc2cc(-c3ccccc3)nn2c(N2CCCC(C)C2)c1C(OC(C)(C)C)C(=O)O (stereo not shown) [Example 10]
EC50 [1]: > 1 µM

COC1CCN(c2c(C(OC(C)(C)C)C(=O)O)c(C)nc3cc(-c4ccccc4)nn23)CC1 (stereo not shown) [Example 11]
EC50 [1]: > 1 µM

Cc1nc2cc(-c3ccccc3)nn2c(N2CCC(F)CC2)c1C(OC(C)(C)C)C(=O)O (stereo not shown) [Example 12]
EC50 [1]: > 1 µM

Cc1nc2cc(-c3ccccc3)nn2c(N2CCC(C(=O)O)CC2)c1C(OC(C)(C)C)C(=O)O (stereo not shown) [Example 13]
EC50 [1]: > 1 µM

Cc1nc2cc(-c3ccccc3)nn2c(N2CC[C@@H]3CCCC[C@@H]3C2)c1C(OC(C)(C)C)C(=O)O (stereo partly shown) [Example 14]
EC50 [1]: 0.1 to 1 µM

Cc1nc2cc(-c3ccccc3)nn2c(N2CCC(O)CC2)c1C(OC(C)(C)C)C(=O)O (stereo not shown) [Example 15]
EC50 [1]: > 1 µM

Cc1nc2cc(-c3ccccc3)nn2c(N2CCC(C(C)C)CC2)c1C(OC(C)(C)C)C(=O)O (stereo not shown) [Example 16]
EC50 [1]: 0.1 to 1 µM | EC50 [2]: 0.77 µM

Cc1nc2cc(-c3ccccc3)nn2c(N2CCC(C(C)(C)C)CC2)c1C(OC(C)(C)C)C(=O)O (stereo not shown) [Example 17]
EC50 [1]: > 1 µM

Cc1nc2cc(-c3ccccc3)nn2c(N2CCCC(F)C2)c1C(OC(C)(C)C)C(=O)O (stereo not shown) [Example 18]
EC50 [1]: > 1 µM

Cc1nc2cc(-c3ccccc3)nn2c(N2CCCCC2C)c1C(OC(C)(C)C)C(=O)O (stereo not shown) [Example 19]
EC50 [1]: 0.1 to 1 µM

Cc1nc2cc(-c3ccccc3)nn2c(N2CCCCC2C)c1C(OC(C)(C)C)C(=O)O (stereo not shown) [Example 20]
EC50 (read-out: Activity, MT-2 cells infected with NL-RLuc virus, 5 days of incubation, luciferase readout, serum condition not given): 0.1 to 1 µM

Cc1nc2cc(-c3ccccc3)nn2c(N2CCC(F)(F)CC2)c1C(OC(C)(C)C)C(=O)O (stereo not shown) [Example 21]
EC50 [1]: > 1 µM

Cc1nc2cc(-c3ccccc3)nn2c(N2CCC(Br)CC2)c1C(OC(C)(C)C)C(=O)O (stereo not shown) [Example 22]
EC50 [1]: > 1 µM

Cc1nc2cc(-c3ccccc3)nn2c(N2CCC(C(F)(F)F)CC2)c1C(OC(C)(C)C)C(=O)O (stereo not shown) [Example 23]
EC50 [1]: > 1 µM

Cc1nc2cc(-c3ccccc3)nn2c(N2CCC(C(N)=O)CC2)c1C(OC(C)(C)C)C(=O)O (stereo not shown) [Example 24]
EC50 [1]: > 1 µM

Cc1nc2cc(-c3ccccc3)nn2c(N2CCCC2C(C)C)c1C(OC(C)(C)C)C(=O)O (stereo not shown) [Example 25]
EC50 [1]: > 1 µM

Cc1nc2cc(-c3ccccc3)nn2c(N2CCC3(CCCC3)C2)c1[C@H](OC(C)(C)C)C(=O)O [Example 26, (S)-2-(tert-butoxy)-2-(5-methyl-2-phenyl-7-(2-azaspiro[4.4]nonan-2-yl)pyrazolo[1,5-a]pyrimidin-6-yl)acetic acid]
EC50 [1]: 0.1 to 1 µM | EC50 [2]: 0.3 µM

Cc1nc2cc(-c3ccccc3)nn2c(N2CCC3(CCCC3)CC2)c1[C@H](OC(C)(C)C)C(=O)O [Example 27, (S)-2-(tert-butoxy)-2-(5-methyl-2-phenyl-7-(8-azaspiro[4.5]decan-8-yl)pyrazolo[1,5-a]pyrimidin-6-yl) acetic acid]
EC50 [1]: > 1 µM

Cc1nc2cc(-c3ccccc3)nn2c(N2CCC(C)(C)C2)c1[C@H](OC(C)(C)C)C(=O)O [Example 28, (S)-2-(tert-butoxy)-2-(7-(3,3-dimethylpyrrolidin-1-yl)-5-methyl-2-phenylpyrazolo[1,5-a]pyrimidin-6-yl)acetic acid]
EC50 [1]: 0.1 to 1 µM

CCC1(C)CCN(c2c([C@H](OC(C)(C)C)C(=O)O)c(C)nc3cc(-c4ccccc4)nn23)CC1 [Example 29, (S)-2-(tert-butoxy)-2-(7-(4-ethyl-4-methylpiperidin-1-yl)-5-methyl-2-phenylpyrazolo[1,5-a]pyrimidin-6-yl)acetic acid]
EC50 [1]: 0.1 to 1 µM

Cc1nc2cc(-c3ccccc3)nn2c(N2CCC3(CC2)CC3)c1[C@H](OC(C)(C)C)C(=O)O [Example 30, (S)-2-(tert-butoxy)-2-(5-methyl-2-phenyl-7-(6-azaspiro[2.5]octan-6-yl)pyrazolo[1,5-a]pyrimidin-6-yl)acetic acid]
EC50 [1]: 0.1 to 1 µM

Cc1nc2cc(-c3cccc(OCc4ccccc4)c3)nn2c(N2CCC(C)CC2)c1C(OC(C)(C)C)C(=O)O (stereo not shown) [Example 31, 2-(2-(3-(benzyloxy)phenyl)-5-methyl-7-(4-methylpiperidin-1-yl)pyrazolo[1,5-a]pyrimidin-6-yl)20(tert-butoxy)acetic acid]
EC50 [1]: < 0.1 µM

Cc1nc2cc(-c3cccc(OCc4ccccc4)c3)nn2c(N2CCC(C)(C)CC2)c1C(OC(C)(C)C)C(=O)O (stereo not shown) [Example 32, 2-(2-(3-(benzyloxy)phenyl)-7-(4,4-dimethylpiperidin-1-yl)-5-methylpyrazolo[1,5-a]pyrimidin-6-yl)2-(tert-butoxy)acetic acid]
EC50 [1]: < 0.1 µM | EC50 [2]: 0.06 µM

Cc1nc2cc(-c3ccc4c(c3)CCCC4)nn2c(N2CCC(C)(C)CC2)c1[C@H](OC(C)(C)C)C(=O)O [Example 33, (S)-2-(tert-Butoxy)-2-(7-(4,4-dimethylpiperidin-1-yl)-5-methyl-2-(5,6,7,8-tetrahydronaphthalen-2-yl)pyrazolo[1,5-a]pyrimidin-6-yl)acetic acid]
EC50 [1]: 0.1 to 1 µM
